Data from US20210145804A1, “COMPOSITIONS AND METHODS FOR TREATING DISORDERS AMELIORATED BY MUSCARINIC RECEPTOR ACTIVATION” (Karuna Therapeutics, Inc., priority 2019, published 2021).
Marks after values point to notes of the source that are not given here. One block for each compound: values may come before it.

Legend:
[1] = Mutagenic potential of xanomeline synthesis intermediate
Alzheimer's disease = settings: 26-week study of Alzheimer's disease; cited from earlier work
[2] = test system: normal healthy volunteers; parameters: species or system human; settings: in vivo
Procedure: A Phase I, double-blind, randomized multiple-dose pilot study was conducted with xanomeline administered alone compared to xanomeline administered with trospium chloride in normal healthy volunteers. […]

[3] = KAR-001 Phase I study: xanomeline and trospium plasma pharmacokinetics; type: in vivo, human

SMILES: CCCCCCOc1nsnc1-c1ccc[n+](C)c1 [Compound V]
Mutagenic potential [1]: negative

Diarrhea, number of individual occurrences [2]: 8 #
Hyperhidrosis, number of individual occurrences [2]: 24 #
Nausea, number of individual occurrences [2]: 11 #
Salivary hypersecretion, number of individual occurrences [2]: 16 #
Subjects who experienced syncope [2]: Two
Vomiting, number of individual occurrences [2]: 5 #
SMILES: CCCCCCOc1nsnc1C1=CCCN(C)C1 [Xanomeline + placebo, xanomeline]
Dropout rate (Alzheimer's disease): 56%
AE leading to discontinuation (D/C) [2]: 2 (6.1) n (%)
AE leading to discontinuation (D/C): # events [2]: 2
Any SAE [2]: 0 (0.0) n (%)
Any TEAE: # events [2]: 108
Any cholinergic TEAEs, number of individual occurrences [2]: 64 #
Any clinically significant TEAE [2]: 5 (15.2) n (%)
Any clinically significant TEAE: # events [2]: 5
Any study drug-related TEAE [2]: 23 (69.7) n (%)
Any study drug-related TEAE: # events [2]: 92
Cholinergic adverse events, Any TEAEs: # of events [2]: 64
Cholinergic adverse events, Any TEAEs: subjects [2]: 21 (63.6%) n [%]
Cholinergic adverse events, Diarrhea: # of events [2]: 8
Cholinergic adverse events, Diarrhea: subjects [2]: 7 (21.2%) n [%]
Cholinergic adverse events, Nausea: # of events [2]: 11
Cholinergic adverse events, Nausea: subjects [2]: 8 (24.2%) n [%]
Cholinergic adverse events, Salivation: # of events [2]: 16
Cholinergic adverse events, Salivation: subjects [2]: 12 (36.4%) n [%]
Cholinergic adverse events, Sweating: # of events [2]: 24
Cholinergic adverse events, Sweating: subjects [2]: 16 (48.5%) n [%]
Cholinergic adverse events, Vomiting: # of events [2]: 5
Cholinergic adverse events, Vomiting: subjects [2]: 5 (15.2%) n [%]
Diarrhea, incidence [2]: 7 (20.6) n (%)
Gastrointestinal disorders (cholinergic TEAE), incidence [2]: 18 (52.9) n (%)
Gastrointestinal disorders (cholinergic TEAE), number of individual occurrences [2]: 40 #
Hyperhidrosis, incidence [2]: 16 (47.1) n (%)
Incidence rate of sweating (hyperhidrosis) [2]: 48.5%
Max Severity of TEAE: Mild [2]: 22 (66.7) N/A n (%)
Max Severity of TEAE: Moderate [2]: 5 (15.2) N/A n (%)
Max Severity of TEAE: Severe [2]: 0 (0.0) n (%)
Max severity of study drug-related TEAE: Mild [2]: 19 (57/6) N/A n (%)
Max severity of study drug-related TEAE: Moderate [2]: 4 (12.1) N/A n (%)
Max severity of study drug-related TEAE: Severe [2]: 0 (0.0) N/A n (%)
Nausea, incidence [2]: 8 (23.5) n (%)
Salivary hypersecretion, incidence [2]: 12 (35.3) n (%)
Skin and subcutaneous tissue disorders (cholinergic TEAE), incidence [2]: 16 (47.1) n (%)
Skin and subcutaneous tissue disorders (cholinergic TEAE), number of individual occurrences [2]: 24 #
Study drug related AE leading to D/C [2]: 1 (3.0) n (%)
Study drug related AE leading to D/C: # events [2]: 1
Subjects reporting at least one cholinergic adverse event [2]: 63%
Subjects with any TEAE [2]: 27 (81.8) n (%)
Subjects with any cholinergic TEAEs, incidence [2]: 21 (61.8) n (%)
Vomiting, incidence [2]: 5 (14.7) n (%)

SMILES: O=C(O[C@H]1C[C@H]2CC[C@@H](C1)[N+]21CCCC1)C(O)(c1ccccc1)c1ccccc1 [trospium alone, trospium chloride]
Trospium Tmax ([3]; KAR-001 Day 1, 20 mg trospium BID lead-in, median): 3.0 h
Tmax ([3]; human, in vivo, 20 mg, KAR-001 Day 1, read-out: Trospium median Tmax): 3 h
Cmax ([3]; human, in vivo, KAR-001 Day 1, 20 mg trospium BID lead-in, geometric mean): 0.722 ng/mL
AUC(0-inf) ([3]; human, in vivo, KAR-001 Day 1, 20 mg trospium BID lead-in, geometric mean, read-out: Trospium AUC0-inf): 7.79 ng·h/mL
AUC ([3]; human, in vivo, KAR-001 Day 1, 20 mg trospium BID lead-in, geometric mean, read-out: Trospium AUC0-tau): 5.03 ng·h/mL
